Data: ChEMBL document CHEMBL1201862, “PubChem BioAssay data set” (2004)
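Assay format: 96-well plates, 48-hour exposure. At the GI50, growth is halved.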 Activity calls are given as the source filed them. Cut-off read from the data, not from the text of the source: active = GI50 up to about 1.1 µM and inactive = higher.

Columns and labels:
Assay in all cases: NCI tumour cell line growth inhibition, 48 h
RXF 393 = tested on: RXF 393
K562 = tested on: K562
SF-295 = tested on: SF-295
OVCAR-5 = tested on: OVCAR-5
IGROV-1 = tested on: IGROV-1
A498 = tested on: A498
OVCAR-8 = tested on: OVCAR-8
HOP-62 = tested on: HOP-62
786-0 = tested on: 786-0
M14 = tested on: M14
CAKI-1 = tested on: CAKI-1
MCF7 = tested on: MCF7
NCI/ADR-RES = tested on: NCI/ADR-RES
MDA-N = tested on: MDA-N
PC-3 = tested on: PC-3
BT-549 = tested on: BT-549
SW-620 = tested on: SW-620
LOX IMVI = tested on: LOX IMVI
MDA-MB-435 = tested on: MDA-MB-435
SK-MEL-2 = tested on: SK-MEL-2
HT-29 = tested on: HT-29
NCI-H460 = tested on: NCI-H460
SK-MEL-28 = tested on: SK-MEL-28
EKVX = tested on: EKVX
UO-31 = tested on: UO-31
SF-539 = tested on: SF-539
UACC-257 = tested on: UACC-257
ACHN = tested on: ACHN
UACC-62 = tested on: UACC-62
KM12 = tested on: KM12
U-251 = tested on: U-251
OVCAR-3 = tested on: OVCAR-3
SK-OV-3 = tested on: SK-OV-3
HCT-15 = tested on: HCT-15
HCT-116 = tested on: HCT-116
TK-10 = tested on: TK-10
SR = tested on: SR
COLO 205 = tested on: COLO 205
SNB-19 = tested on: SNB-19
HOP-92 = tested on: HOP-92
MDA-MB-231 = tested on: MDA-MB-231
MOLT-4 = tested on: MOLT-4
SN12C = tested on: SN12C
OVCAR-4 = tested on: OVCAR-4
SK-MEL-5 = tested on: SK-MEL-5
RPMI-8226 = tested on: RPMI-8226
HL-60 = tested on: HL-60
A549 = tested on: A549
CCRF-CEM = tested on: CCRF-CEM
NCI-H226 = tested on: NCI-H226
NCI-H23 = tested on: NCI-H23
DU-145 = tested on: DU-145
Hs-578T = tested on: Hs-578T
SF-268 = tested on: SF-268
HCC 2998 = tested on: HCC 2998
T47D = tested on: T47D
Malme-3M = tested on: Malme-3M

COC(=O)C1C(O)C(C(=O)OC)C(C)N(C)C1C (stereo not given)
GI50 (RXF 393): > 100 µM (inactive)
GI50 (K562): > 100 µM (inactive)
GI50 (SF-295): > 100 µM (inactive)
GI50 (OVCAR-5): > 100 µM (inactive)
GI50 (IGROV-1): > 100 µM (inactive)
GI50 (A498): > 100 µM (inactive)
GI50 (OVCAR-8): > 100 µM (inactive)
GI50 (HOP-62): > 100 µM (inactive)
GI50 (786-0): > 100 µM (inactive)
GI50 (M14): > 100 µM (inactive)
GI50 (CAKI-1): > 100 µM (inactive)
GI50 (MCF7): > 100 µM (inactive)
GI50 (NCI/ADR-RES): > 100 µM (inactive)
GI50 (MDA-N): > 100 µM (inactive)
GI50 (PC-3): > 100 µM (inactive)
GI50 (BT-549): > 100 µM (inactive)
GI50 (SW-620): > 100 µM (inactive)
GI50 (LOX IMVI): > 100 µM (inactive)
GI50 (MDA-MB-435): > 100 µM (inactive)
GI50 (SK-MEL-2): > 100 µM (inactive)
GI50 (HT-29): > 100 µM (inactive)
GI50 (NCI-H460): > 100 µM (inactive)
GI50 (SK-MEL-28): > 100 µM (inactive)
GI50 (EKVX): > 100 µM (inactive)
GI50 (UO-31): > 100 µM (inactive)
GI50 (SF-539): > 100 µM (inactive)
GI50 (UACC-257): > 100 µM (inactive)
GI50 (ACHN): > 100 µM (inactive)
GI50 (UACC-62): > 100 µM (inactive)
GI50 (KM12): > 100 µM (inactive)
GI50 (U-251): > 100 µM (inactive)
GI50 (OVCAR-3): > 100 µM (inactive)
GI50 (SK-OV-3): > 100 µM (inactive)
GI50 (HCT-15): > 100 µM
GI50 (HCT-116): > 100 µM (inactive)
GI50 (TK-10): > 100 µM (inactive)
GI50 (SR): > 100 µM (inactive)
GI50 (COLO 205): > 100 µM (inactive)
GI50 (SNB-19): > 100 µM (inactive)
GI50 (HOP-92): > 100 µM (inactive)
GI50 (MDA-MB-231): > 100 µM (inactive)
GI50 (MOLT-4): > 100 µM (inactive)
GI50 (SN12C): > 100 µM (inactive)
GI50 (OVCAR-4): > 100 µM (inactive)
GI50 (SK-MEL-5): > 100 µM (inactive)
GI50 (RPMI-8226): > 100 µM (inactive)
GI50 (HL-60): > 100 µM (inactive)
GI50 (A549): > 100 µM (inactive)
GI50 (CCRF-CEM): > 100 µM (inactive)
GI50 (NCI-H226): > 100 µM (inactive)
GI50 (NCI-H23): > 100 µM (inactive)

CC(=O)c1c(O)nnc(-c2ccc(Cl)cc2)c1-c1ccc(Cl)cc1
GI50 (RXF 393): 38.9 µM (inactive)
GI50 (K562): 30.4 µM (inactive)
GI50 (SF-295): 46.1 µM (inactive)
GI50 (OVCAR-5): > 100 µM (inactive)
GI50 (IGROV-1): 26.2 µM (inactive)
GI50 (A498): 26.7 µM (inactive)
GI50 (OVCAR-8): 31.5 µM (inactive)
GI50 (DU-145): 54.8 µM (inactive)
GI50 (786-0): 83.6 µM (inactive)
GI50 (M14): 65.6 µM (inactive)
GI50 (CAKI-1): 31.8 µM (inactive)
GI50 (MCF7): 32.1 µM (inactive)
GI50 (Hs-578T): 53.1 µM (inactive)
GI50 (NCI/ADR-RES): 30.1 µM (inactive)
GI50 (SF-268): > 100 µM (inactive)
GI50 (MDA-N): 33.7 µM (inactive)
GI50 (PC-3): 37.4 µM (inactive)
GI50 (HCC 2998): 61.8 µM (inactive)
GI50 (T47D): 31.5 µM (inactive)
GI50 (SW-620): 62.5 µM (inactive)
GI50 (LOX IMVI): 21.7 µM (inactive)
GI50 (MDA-MB-435): 29.9 µM (inactive)
GI50 (SK-MEL-2): 25.1 µM (inactive)
GI50 (HT-29): 40.5 µM (inactive)
GI50 (NCI-H460): 33 µM (inactive)
GI50 (SK-MEL-28): 41.9 µM (inactive)
GI50 (EKVX): 53.3 µM (inactive)
GI50 (SF-539): 22.7 µM (inactive)
GI50 (UACC-257): 39 µM (inactive)
GI50 (ACHN): 22 µM (inactive)
GI50 (UACC-62): 12.4 µM (inactive)
GI50 (KM12): 35.2 µM (inactive)
GI50 (U-251): 51.9 µM (inactive)
GI50 (OVCAR-3): 25.1 µM (inactive)
GI50 (SK-OV-3): 40.8 µM (inactive)
GI50 (HCT-15): 24.2 µM
GI50 (HCT-116): 58.2 µM (inactive)
GI50 (TK-10): 62.4 µM (inactive)
GI50 (Malme-3M): 28.5 µM (inactive)
GI50 (SR): 27.9 µM (inactive)
GI50 (COLO 205): 29.2 µM (inactive)
GI50 (SNB-19): > 100 µM (inactive)
GI50 (HOP-92): 52.7 µM (inactive)
GI50 (MDA-MB-231): 21.2 µM (inactive)
GI50 (MOLT-4): 48.5 µM (inactive)
GI50 (SN12C): 22.3 µM (inactive)
GI50 (OVCAR-4): 21.1 µM (inactive)
GI50 (SK-MEL-5): 29 µM (inactive)
GI50 (RPMI-8226): 23.2 µM (inactive)
GI50 (HL-60): 25 µM (inactive)
GI50 (A549): 29.9 µM (inactive)
GI50 (CCRF-CEM): 45.7 µM (inactive)
GI50 (NCI-H226): 31.3 µM (inactive)
GI50 (NCI-H23): 69.3 µM (inactive)
